Experimental data published in patent US20190062749A1, “SIRNA, PHARMACEUTICAL COMPOSITION AND CONJUGATE WHICH CONTAIN SIRNA, AND USES THEREOF” (priority 2015, published 2019).
Where two headings read alike, the source gives them in different places. Oligonucleotides are written 5' to 3', each unit as a sugar letter and its base; * is a phosphorothioate linkage, no mark a phosphodiester; rarer units and linkages stand in square brackets, end groups in braces. Plain capitals give the bases only. d = 2'-deoxy (DNA); m = 2'-O-methyl; r = 2'-OH (RNA); f = 2'-fluoro

Assay: Stability of siRNAs in human plasma in vitro (gel, ratio of the longest fragments RL)
Assay type: in vitro ADME
Method: The siRNAs (20 μM, 10 μl) obtained in Preparation Example 1 were incubated with 50% human plasma (HP) at 37° C. in vitro for a certain time and samples were taken therefrom. Specifically, 10 μl samples were taken at 0, 2, 4, 6, 8, 24 and 48 hours respectively and immediately snap frozen in liquid nitrogen, followed by cryopreservation at −80° C. for future use. 20 wt % non-denaturing polyacrylamide gel was formulated, and 10 μl 5-fold diluted above samples (dilution solution: 1×PBS buffer at pH 7.4) and 4 μl loading buffer (20 mM EDTA, 36 wt % glycerol, 0.06 wt % bromophenol blue) were mixed and then loaded into the gel to perform electrophoresis for about 60 minutes under 80 mA constant current. After electrophoresis finished, the gel was stained with 1× Sybr Gold dye (Invitrogen, Cat. 11494) for 15 minutes followed by imaging.
The ratio of the longest fragments remained after incubating the test siRNAs and control siRNAs with human plasma to the longest fragments of the siRNAs without the treatment of human plasma (i.e., the markers shown in FIG. 3) (also referred to as ratio of the longest fragments, RL) is calculated by reading the grayscale values quantitatively.

## 1d: sense CmCmUmUmGAGGCmAUmACmUmUmCmAAAdTdT, antisense UUmUfGAAGUfAUfGCCUfCAAGGdTdT (sense mCmCmUmUrGrArGrGmCrAmUrAmCmUmUmCrArArAdTdT; antisense rUmUfUrGrArArGfUrAfUrGrCrCfUrCrArArGrGdTdT)
50% human plasma, 37° C., 0 h
  RL (ratio of the longest fragments) 0 h: 100.0%
50% human plasma, 37° C., 2 h
  RL (ratio of the longest fragments) 2 h: 90.0%
50% human plasma, 37° C., 4 h
  RL (ratio of the longest fragments) 4 h: 97.2%
50% human plasma, 37° C., 6 h
  RL (ratio of the longest fragments) 6 h: 93.3%
50% human plasma, 37° C., 8 h
  RL (ratio of the longest fragments) 8 h: 87.5%
50% human plasma, 37° C., 24 h
  RL (ratio of the longest fragments) 24 h: 55.7%
50% human plasma, 37° C., 48 h
  RL (ratio of the longest fragments) 48 h: 65.1%

## 2d: sense CmCmUmUmGAGGCmAUmACmUmUmCmAAAdTdT, antisense UfUUfGAAGUfAUfGCCUfCAAGGdTdT (sense mCmCmUmUrGrArGrGmCrAmUrAmCmUmUmCrArArAdTdT; antisense fUrUfUrGrArArGfUrAfUrGrCrCfUrCrArArGrGdTdT)
50% human plasma, 37° C., 0 h
  RL (ratio of the longest fragments) 0 h: 100.0%
50% human plasma, 37° C., 2 h
  RL (ratio of the longest fragments) 2 h: 97.6%
50% human plasma, 37° C., 4 h
  RL (ratio of the longest fragments) 4 h: 88.2%
50% human plasma, 37° C., 6 h
  RL (ratio of the longest fragments) 6 h: 82.2%
50% human plasma, 37° C., 8 h
  RL (ratio of the longest fragments) 8 h: 84.5%
50% human plasma, 37° C., 24 h
  RL (ratio of the longest fragments) 24 h: 82.1%
50% human plasma, 37° C., 48 h
  RL (ratio of the longest fragments) 48 h: 78.4%

## 3d: sense CmCmUmUmGAGGCmAUmACmUmUmCmAAAdTdT, antisense UfUmUGAAGUfAUfGCCUfCAAGGdTdT (sense mCmCmUmUrGrArGrGmCrAmUrAmCmUmUmCrArArAdTdT; antisense fUmUrUrGrArArGfUrAfUrGrCrCfUrCrArArGrGdTdT)
50% human plasma, 37° C., 0 h
  RL (ratio of the longest fragments) 0 h: 100.0%
50% human plasma, 37° C., 2 h
  RL (ratio of the longest fragments) 2 h: 96.6%
50% human plasma, 37° C., 4 h
  RL (ratio of the longest fragments) 4 h: 99.6%
50% human plasma, 37° C., 6 h
  RL (ratio of the longest fragments) 6 h: 93.3%
50% human plasma, 37° C., 8 h
  RL (ratio of the longest fragments) 8 h: 87.1%
50% human plasma, 37° C., 24 h
  RL (ratio of the longest fragments) 24 h: 75.0%
50% human plasma, 37° C., 48 h
  RL (ratio of the longest fragments) 48 h: 41.6%

## 8d: sense CmCmUmUmGAGGCmAUmACmUmUmCmAAAdTdT, antisense UfUmUfGAAGUAUfGCCUfCAAGGdTdT (sense mCmCmUmUrGrArGrGmCrAmUrAmCmUmUmCrArArAdTdT; antisense fUmUfUrGrArArGrUrAfUrGrCrCfUrCrArArGrGdTdT)
50% human plasma, 37° C., 0 h
  RL (ratio of the longest fragments) 0 h: 100.0%
50% human plasma, 37° C., 2 h
  RL (ratio of the longest fragments) 2 h: 78.2%
50% human plasma, 37° C., 4 h
  RL (ratio of the longest fragments) 4 h: 72.7%
50% human plasma, 37° C., 6 h
  RL (ratio of the longest fragments) 6 h: 59.7%
50% human plasma, 37° C., 8 h
  RL (ratio of the longest fragments) 8 h: 48.3%
50% human plasma, 37° C., 24 h
  RL (ratio of the longest fragments) 24 h: 34.0%
50% human plasma, 37° C., 48 h
  RL (ratio of the longest fragments) 48 h: 25.9%

## 14d: sense CmCmUmUmGAGGCmAUmACmUmUmCmAAAdTdT, antisense UfUmUfGAAGUfAUfGCCUCAAGGdTdT (sense mCmCmUmUrGrArGrGmCrAmUrAmCmUmUmCrArArAdTdT; antisense fUmUfUrGrArArGfUrAfUrGrCrCrUrCrArArGrGdTdT)
50% human plasma, 37° C., 0 h
  RL (ratio of the longest fragments) 0 h: 100.0%
50% human plasma, 37° C., 2 h
  RL (ratio of the longest fragments) 2 h: 94.6%
50% human plasma, 37° C., 4 h
  RL (ratio of the longest fragments) 4 h: 90.0%
50% human plasma, 37° C., 6 h
  RL (ratio of the longest fragments) 6 h: 85.6%
50% human plasma, 37° C., 8 h
  RL (ratio of the longest fragments) 8 h: 86.0%
50% human plasma, 37° C., 24 h
  RL (ratio of the longest fragments) 24 h: 78.0%
50% human plasma, 37° C., 48 h
  RL (ratio of the longest fragments) 48 h: 84.6%

## NC-bas: negative control siRNA; sense UmUmCmUmCmCmGAACmGUmGUmCmACmGUmdTdT, antisense ACmGUfGACfACfGUfUfCfGGAGAAdTdT (sense UUCUCCGAACGUGUCACGUTT; antisense ACGUGACACGUUCGGAGAATT; chemistry not fully specified) [reference compound]
  RL (ratio of the longest fragments) 0 h: 100.0%
  RL (ratio of the longest fragments) 2 h: 95.1%
  RL (ratio of the longest fragments) 4 h: 89.8%
  RL (ratio of the longest fragments) 6 h: 86.8%
  RL (ratio of the longest fragments) 8 h: 85.3%
  RL (ratio of the longest fragments) 24 h: 91.1%
  RL (ratio of the longest fragments) 48 h: 90.8%
